Assay results published in patent publication US10183011B2, “Anti-depression compounds” (Board of Regents of the University of Texas System, priority 2009, dated 2019).
pIC50: −log10 of the molar value. Entries after “also recorded” stand apart in the source; their conditions may differ. Like-named read-outs stand apart in the source and are kept apart here.

How the values were obtained:
H1 histamine receptor = H1 histamine receptor (Homo sapiens, UniProt P35367); assay: Binding to the H1 histamine receptor
Protocol: Example 45 Compound and Dimebon were tested for binding to the H1 histamine receptor.

[1] = Brain and blood levels three weeks after MPTP administration (LC/MS/MS); assay type: in vivo, mouse (C57BL/6); conditions: 21 days i.p. dosing after MPTP
Protocol: Data are expressed as mean±SEM. Three animals were tested per group.
C57BL/6 mice treated with MPTP and then dosed IP with compound for 21 days were utilized for pharmacokinetic (PK) analysis of total P7C3, P7C3A20 and Dimebon levels in plasma and brain. In a separate set of experiments designed to test the ability of new P7C3 analogs to cross the blood brain barrier, C57BL/6 mice were dosed IP a single time with compounds at 10 mg/kg. P7C3, P7C3A20 and Dimebon were formulated for administration as described above. Analogs were formulated in 5% Dextrose, pH 7.4, containing 5% DMSO and 10% Cremophor EL with the exception of P7C3-S8 which required 10% DMSO and 20% Cremophor EL dissolved in 5% Dextrose for delivery. Six hours after the final compound dose, animals were given an inhalation overdose of CO2 and whole blood and brain collected. Plasma was prepared from blood and was stored along with the brain tissue at −80° C. until analysis. […] The supernatant was then analyzed by LC/MS/MS. […] The limit of quantitation (LOQ) was defined as the lowest concentration at which back calculation yielded a concentration within 20% of the theoretical value and above the LOD signal. […] Compound levels were monitored by LC/MS/MS using an AB/Sciex (Framingham, Mass.) 3200 Qtrap mass spectrometer coupled to a Shimadzu (Columbia, Md.) Prominence LC.

[2] = tested on: neural precursor cells in the subgranular zone of the dentate gyrus; assay: In vivo pro-neurogenic efficacy/neuroprotection assay: intracerebroventricular infusion, BrdU incorporation in the dentate gyrus; parameters: species or system mouse (C57/Bl6); conditions: for pro-neurogenic activity in the in vivo hippocampal neurogenesis assay: direct administration into the brain via Alzet minipumps for one week, 10 μM unless stated
Protocol: Compounds were evaluated for pro-neurogenic efficacy/neuroprotection in our standard in vivo assay at 10 μM concentration in four 12 week old adult male C57/Bl6 mice.
In an effort to identify compounds that might stimulate the birth of new neurons, or protect newborn neurons from cell death, a library of 1,000 compounds was screened using an in vivo assay. In the initial screen, compounds were randomly pooled into groups often and administered intracerebroventricularly at a constant rate over seven days into the left lateral ventricle of living mice via Alzet osmotic mini-pumps. Compounds were administered at a concentration of 10 μM for each molecule, making a total solute concentration of 100 μM. After seven days of infusion at a constant rate of 0.5 μL/hour, a total of 84 μL of volume will have left the pump (0.00084 μMoles) and entered the cerebrospinal fluid. The average volume of a brain from a 12 week old male, C57/B6 mouse in our study is 500 mm^3. […] Under these conditions, at the end of one week of infusion each compound would be present at 1.7 μMolar concentration. Since the actual amount of chemical compound in the brain is likely to be only a fraction of this predicted level, it is reasonable to estimate that compounds were administered at mid to low-nanomolar concentrations.
During compound infusion, animals were intraperitoneally (IP) injected daily with the thymidine analog, bromodeoxyuridine (BrdU), as a means of scoring the birth and survival of proliferating neural precursor cells in the hippocampus. Because both social interaction and voluntary exercise are known to stimulate hippocampal neurogenesis, mice were housed individually without access to running wheels throughout the screening period. Following the week-long period of compound administration, animals were perfused and sacrificed. Dissected brain tissue was fixed, embedded, sectioned, stained with antibodies to BrdU, and evaluated by light microcopy as a means of quantifying neurogenesis and survival of newborn neural precursor cells localized to the subgranular layer of the dentate gyrus on the brain hemisphere contralateral to the side of mini-pump cannulation. Every fifth section throughout the entire rostral-caudal extent of the hippocampus was analyzed, and the total number of BrdU+ cells was normalized against the measured volume of the dentate gyrus. Because both increased proliferation and survival of newborn neurons are important screening parameters, the screen was conducted over seven days in order to cast a wide net to detect molecules that might augment either process. […] Intracranial infusions of either fibroblast growth factor 2 (FGF-2) or artificial cerebral spinal fluid (aCSF) vehicle via the same, week-long protocol were employed as positive and negative controls. There was no difference in the number of BrdU-labeled cells in the dentate gyrus between mice subjected to surgical pump implantation and infusion with vehicle, and mice having had no surgery (FIG. 2). This confirmed the validity of the in vivo approach to assess the ability of intracerebroventricularly infused compounds to enhance hippocampal neurogenesis in the contralateral hemisphere.
In order to further study Example 45 Compound, an in vivo structure activity relationship (SAR) study was conducted using 37 chemical derivatives of the compound for pro-neurogenic activity via direct administration into the brain of adult mice via Alzet minipumps. Compounds were administered for one week at 10 uM into 4 mice per compound, along with daily IP injections of BrdU. Following compound administration, animals were perfused, sacrificed and subjected to sectioning, staining and light microscopy in order to monitor hippocampal neurogenesis localized to the subgranular layer of the dentate gyrus. Roughly 10% of the variant compounds retained pro-neurogenic activity indistinguishable from the parent compound. […]

Sequence of H1 histamine receptor (P35367 whole entry): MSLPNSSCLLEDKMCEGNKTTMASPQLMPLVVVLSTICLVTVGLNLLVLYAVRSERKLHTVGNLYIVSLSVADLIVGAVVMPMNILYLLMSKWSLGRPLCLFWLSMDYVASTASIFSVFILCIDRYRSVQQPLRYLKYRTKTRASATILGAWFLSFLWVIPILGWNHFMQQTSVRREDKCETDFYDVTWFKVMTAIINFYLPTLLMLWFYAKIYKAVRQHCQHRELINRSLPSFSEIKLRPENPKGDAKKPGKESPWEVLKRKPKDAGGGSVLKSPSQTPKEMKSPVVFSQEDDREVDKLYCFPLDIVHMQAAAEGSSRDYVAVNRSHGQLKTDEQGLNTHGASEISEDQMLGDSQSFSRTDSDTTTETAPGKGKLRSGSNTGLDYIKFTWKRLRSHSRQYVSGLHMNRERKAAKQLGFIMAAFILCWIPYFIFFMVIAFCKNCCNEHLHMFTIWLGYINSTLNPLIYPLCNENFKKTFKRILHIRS

Compound | pIC50 (H1 histamine receptor) | brain accumulation relative to other compound [1] | pro-neurogenic activity in the in vivo hippocampal neurogenesis assay [2] | ceiling of efficacy relative to Dimebon in the in vivo test of hippocampal neurogenesis ([2]; higher than Dimebon) | pIC50 (H1 histamine receptor; both enantiomers)
Cc1ccc2c(c1)c1c(n2CCc2ccc(C)nc2)CCN(C)C1 [Dimebon, 2,3,4,5-Tetrahydro-2,8-dimethyl-5-(2-(6-methyl-3-pyridyl)ethyl)-1H-pyrido(4,3-b)indole, reference compound] | > 7.00 | comparable levels of brain accumulation to P7C3A20; also recorded: equivalent to P7C3 | – | – | –
OC(CNc1ccccc1)Cn1c2ccc(Br)cc2c2cc(Br)ccc21 (stereo not shown) [Example 45 Compound] | – | – | pro-neurogenic or neuroprotective activity at both concentrations | roughly 40% | < 5.00
OC(CNc1cccc2ccccc12)Cn1c2ccc(Cl)cc2c2cc(Cl)ccc21 (stereo not shown) [Example P7C3-S184] | – | – | inactive in both in vivo assays | – | –
COc1cccc(NCC(F)Cn2c3ccc(Br)cc3c3cc(Br)ccc32)c1 (stereo not shown) [Example P7C3A20, N-(3-(3,6-dibromo-9H-carbazol-9-yl)-2-fluoropropyl)-3-methoxyaniline] | – | less than one-tenth the concentration of P7C3; also recorded: about one-tenth | – | – | –
